According to patent US10759781B2, “Substituted guanidine derivatives” (UBE INDUSTRIES, LTD., priority 2015, dated 2020):
Counter-ions that a name gives are not always drawn.

Tests used:
[1] = biological target: T1, Human VAP-1 enzyme (Homo sapiens, UniProt Q16853); assay: Human VAP-1 enzyme inhibition test; assay type: biochemical; conditions: 1 h; compound 30 nM; 14C-benzylamine 100 μM; read-out: inhibition ratio (human VAP-1 enzyme)
T1 construct: purchased R&D Systems, Inc
T1 sequence (Q16853 1-763): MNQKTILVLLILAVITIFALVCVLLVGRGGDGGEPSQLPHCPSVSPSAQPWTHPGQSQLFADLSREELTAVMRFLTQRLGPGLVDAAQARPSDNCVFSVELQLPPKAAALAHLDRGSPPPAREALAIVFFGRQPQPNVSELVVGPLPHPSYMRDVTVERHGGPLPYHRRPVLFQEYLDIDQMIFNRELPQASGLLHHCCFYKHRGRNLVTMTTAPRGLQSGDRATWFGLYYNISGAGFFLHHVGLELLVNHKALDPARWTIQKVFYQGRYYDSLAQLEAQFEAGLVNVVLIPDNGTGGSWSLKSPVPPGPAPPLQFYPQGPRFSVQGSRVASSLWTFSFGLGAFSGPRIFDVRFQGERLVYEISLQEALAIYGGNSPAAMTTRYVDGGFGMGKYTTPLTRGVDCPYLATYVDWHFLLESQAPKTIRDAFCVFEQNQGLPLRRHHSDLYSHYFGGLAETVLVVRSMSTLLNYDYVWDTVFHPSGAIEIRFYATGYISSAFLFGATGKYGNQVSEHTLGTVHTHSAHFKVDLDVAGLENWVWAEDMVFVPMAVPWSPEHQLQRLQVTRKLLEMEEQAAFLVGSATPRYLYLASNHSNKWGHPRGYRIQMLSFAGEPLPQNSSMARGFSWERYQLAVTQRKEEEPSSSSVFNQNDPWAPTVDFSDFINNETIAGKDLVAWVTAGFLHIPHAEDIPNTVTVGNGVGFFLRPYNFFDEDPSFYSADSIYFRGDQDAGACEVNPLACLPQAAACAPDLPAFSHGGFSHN
Procedure, shortened: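 Activity measured as radioactive oxidation product of 14C-benzylamine (100 μM final), extracted with toluene/ethyl acetate after citric acid stop and scintillation-counted. Enzyme (recombinant human VAP-1) first exposed to compound 20 min at room temperature, reaction then 1 h at 37 °C. Percent inhibition versus DMSO control.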

[2] = biological target: T2, Rat Plasma VAP-1 (Rattus norvegicus, UniProt O08590); assay: (Ex vivo) rat plasma VAP-1 inhibition test after oral administration of the compound; assay type: in vivo; conditions: 3 hours after oral administration, SD male rats, read-out: inhibition ratio (plasma VAP-1, ex vivo)
T2 construct: from tissue; host or cells: plasma of SD male rats (7-12 weeks old) after oral dosing
T2 sequence (O08590 28-763 limits assumed): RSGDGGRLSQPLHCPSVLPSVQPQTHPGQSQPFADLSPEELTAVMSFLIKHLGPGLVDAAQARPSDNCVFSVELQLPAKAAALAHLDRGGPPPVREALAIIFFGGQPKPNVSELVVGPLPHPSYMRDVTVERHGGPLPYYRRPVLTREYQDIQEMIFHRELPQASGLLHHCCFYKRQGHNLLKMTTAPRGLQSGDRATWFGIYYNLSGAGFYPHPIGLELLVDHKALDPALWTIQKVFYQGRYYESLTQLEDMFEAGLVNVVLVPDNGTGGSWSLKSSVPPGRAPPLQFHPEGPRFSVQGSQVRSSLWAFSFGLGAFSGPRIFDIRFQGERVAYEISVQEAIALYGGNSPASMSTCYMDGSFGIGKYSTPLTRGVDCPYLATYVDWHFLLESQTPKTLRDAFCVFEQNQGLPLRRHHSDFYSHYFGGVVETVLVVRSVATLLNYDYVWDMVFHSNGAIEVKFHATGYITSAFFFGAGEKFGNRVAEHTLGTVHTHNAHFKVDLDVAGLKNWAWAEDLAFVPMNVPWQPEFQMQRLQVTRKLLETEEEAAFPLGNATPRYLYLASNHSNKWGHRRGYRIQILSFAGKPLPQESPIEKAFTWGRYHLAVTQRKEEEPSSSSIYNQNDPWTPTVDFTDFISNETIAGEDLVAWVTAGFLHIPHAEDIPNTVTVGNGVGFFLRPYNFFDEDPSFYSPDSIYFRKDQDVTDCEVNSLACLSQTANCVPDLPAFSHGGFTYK
Experimental: (Ex Vivo) Rat Plasma VAP-1 Inhibition Test after Oral Administration of the Compound
The compound was orally administered (0.3-10 mg/kg) to 7-12 week old SD male rats in the non-fasting state. Under anesthesia, the blood was collected in heparin tubes from the jugular vein before the administration and 3, 8 and 24 hours after the administration. The blood was centrifuged at 14000 rpm for 10 minutes to get plasma. The VAP-1 enzyme activity in the plasma was measured by radiochemical enzyme assay.
The radiochemical enzyme assay was conducted by modifying the method of P. H. Yu et al. (Diabetologia 40 1243 (1997)). ^14C-benzylamine (2.5 μM) was added to the obtained plasma, and was incubated at 37° C. for 3 hours. The reaction was terminated by the addition of 100 μL of 2 M citric acid solution to the reaction solution. The oxidative product was extracted using a toluene/ethyl acetate mixture and the radioactivity was measured with a liquid scintillation counter. The inhibition ratio of the compound was calculated using the following equation. Inhibition ratio={1−[Plasma VAP-1 activity after administration of the compound]/[Plasma VAP-1 activity before administration]}×100

inhibition at 0.03 µM [1] | inhibition in vivo at 0.3 mg/kg [2] | Structure (SMILES)
≥ 50% | ≥ 50% | COCCON=C1CN(c2ncc(-c3cccc(COC(=O)NC(=N)N)c3F)cn2)C1 [Example 12, 2-Fluoro-3-(2-{3-[(2-methoxyethoxy)imino]azetidin-1-yl}pyrimidin-5-yl)benzyl carbamimidoylcarbamate]
≥ 50% | ≥ 50% | COCC(CON=C1CN(c2ncc(-c3cccc(COC(=O)NC(=N)N)c3F)cn2)C1)OC(C)=O (stereo not drawn) [Example 20, 1-[({1-[5-(3-{[(Carbamimidoylcarbamoyl)oxy]methyl}-2-fluorophenyl)pyrimidin-2-yl]azetidin-3-ylidene}amino)oxy]-3-methoxypropan-2-yl acetate]
≥ 50% | ≥ 50% | CON=C1CN(c2ccc(-c3cccc(COC(=O)NC(=N)N)c3F)cn2)C1 [Example 41, 2-Fluoro-3-{6-[3-(methoxyimino)azetidin-1-yl]pyridin-3-yl}benzyl carbamimidoylcarbamate]
≥ 50% | ≥ 50% | CON=C1CN(c2ncc(-c3cccc(COC(=O)NC(=N)N)c3F)cc2C)C1 [Example 42, 2-Fluoro-3-{6-[3-(methoxyimino)azetidin-1-yl]-5-methylpyridin-3-yl}benzyl carbamimidoylcarbamate]
 | ≥ 50% | CON=C1CCN(c2ncc(-c3cccc(COC(=O)NC(=N)N)c3F)cn2)CC1 [Example 51, 2-Fluoro-3-{2-[4-(methoxyimino)piperidin-1-yl]pyrimidin-5-yl}benzyl carbamimidoylcarbamate]
 | ≥ 50% | CCON=C1CCN(c2ncc(-c3cccc(COC(=O)NC(=N)N)c3F)cn2)CC1 [Example 53, 3-{2-[4-(Ethoxyimino)piperidin-1-yl]pyrimidin-5-yl}-2-fluorobenzyl carbamimidoylcarbamate]
≥ 50% | ≥ 50% | CO/N=C1\CCN(c2ncc(-c3cccc(COC(=O)NC(=N)N)c3F)cn2)C1 [Example 69, (E/Z)-2-fluoro-3-{2-[3-(methoxyimino)pyrrolidin-1-yl]pyrimidin-5-yl}benzyl carbamimidoylcarbamate]
≥ 50% | ≥ 50% | N=C(N)NC(=O)OCc1cccc(-c2cnc(N3CC(=NO)C3)nc2)c1F [Example 70, 2-Fluoro-3-{2-[3-(hydroxyimino)azetidin-1-yl]pyrimidin-5-yl}benzyl carbamimidoylcarbamate]
≥ 50% | ≥ 50% | N=C(N)NC(=O)OCc1cccc(-c2cnc(N3CC(=NOCCCO)C3)nc2)c1F [Example 72, 2-Fluoro-3-(2-{3-[(3-hydroxypropoxy)imino]azetidin-1-yl}pyrimidin-5-yl)benzyl carbamimidoylcarbamate]

Second part, the molecule before the results:

Structure (SMILES) | inhibition at 0.03 µM [1] | inhibition in vivo at 0.3 mg/kg [2]
N=C(N)NC(=O)OCc1cccc(-c2cnc(N3CCC(=NOCCOC4CCCCO4)CC3)nc2)c1F (stereo not drawn) [Example 57, 2-Fluoro-3-{2-[4-({2-[(tetrahydropyran-2-yl)oxy]ethoxy}imino)piperidin-1-yl]pyrimidin-5-yl}benzyl carbamimidoylcarbamate] | ≥ 50% | ≥ 50%
COCCON=C1CCN(c2ncc(-c3cccc(COC(=O)NC(=N)N)c3F)cn2)CC1 [Example 60, 2-Fluoro-3-(2-{4-[(2-methoxyethoxy)imino]piperidin-1-yl}pyrimidin-5-yl)benzyl carbamimidoylcarbamate] | ≥ 50% | ≥ 50%
CC(=O)OCCON=C1CCN(c2ncc(-c3cccc(COC(=O)NC(=N)N)c3F)cn2)CC1 [Example 68, 2-[({1-[5-(3-{[(Carbamimidoylcarbamoyl)oxy]methyl}-2-fluorophenyl)pyrimidin-2-yl]piperidin-4-ylidene}amino)oxy]ethyl acetate] | ≥ 50% | ≥ 50%
N=C(N)NC(=O)OCc1cccc(-c2cnc(N3CC(=NOCC(CO)COC(=O)c4ccccc4)C3)nc2)c1F (stereo not drawn) [Example 83, 3-[({1-[5-(3-{[(Carbamimidoylcarbamoyl)oxy]methyl}-2-fluorophenyl)pyrimidin-2-yl]azetidin-3-ylidene}amino)oxy]-2-(hydroxymethyl)propyl benzoate] |  | ≥ 50%
N=C(N)NC(=O)OCc1cccc(-c2cnc(N3CCC(=NOCCO)CC3)nc2)c1F [Example 85, 2-Fluoro-3-(2-{4-[(2-hydroxyethoxy)imino]piperidin-1-yl}pyrimidin-5-yl)benzyl carbamimidoylcarbamate] | ≥ 50% | ≥ 50%
N=C(N)NC(=O)OCc1cccc(-c2cnc(N3CCC(=NOCCCO)CC3)nc2)c1F [Example 86, 2-Fluoro-3-(2-{4-[(3-hydroxypropoxy)imino]piperidin-1-yl}pyrimidin-5-yl)benzyl carbamimidoylcarbamate hydrochloride] | ≥ 50% | ≥ 50%
N=C(N)NC(=O)OCc1cccc(-c2cnc(N3CCC(=NOCCCCO)CC3)nc2)c1F [Example 87, 2-Fluoro-3-(2-{4-[(4-hydroxybutoxy)imino]piperidin-1-yl}pyrimidin-5-yl)benzyl carbamimidoylcarbamate hydrochloride] | ≥ 50% | ≥ 50%
CC(O)CON=C1CCN(c2ncc(-c3cccc(COC(=O)NC(=N)N)c3F)cn2)CC1 (stereo not drawn) [Example 90, 2-Fluoro-3-(2-{4-[(2-hydroxypropoxy)imino]piperidin-1-yl}pyrimidin-5-yl)benzyl carbamimidoylcarbamate] | ≥ 50% | ≥ 50%
CC(CO)CON=C1CCN(c2ncc(-c3cccc(COC(=O)NC(=N)N)c3F)cn2)CC1 (stereo not drawn) [Example 91, 2-Fluoro-3-(2-{4-[(3-hydroxy-2-methylpropoxy)imino]piperidin-1-yl}pyrimidin-5-yl)benzyl carbamimidoylcarbamate] | ≥ 50% | ≥ 50%
N=C(N)NC(=O)OCc1cccc(-c2cnc(N3CC(=NOCCC(O)CO)C3)nc2)c1F (stereo not drawn) [Example 94, 3-(2-{3-[(3,4-Dihydroxybutoxy)imino]azetidin-1-yl}pyrimidin-5-yl)-2-fluorobenzyl carbamimidoylcarbamate] | ≥ 50% | ≥ 50%
CCOC(=O)CCON=C1CCN(c2ncc(-c3cccc(COC(=O)NC(=N)N)c3F)cn2)CC1 [Example 149, Ethyl 3-[({1-[5-(3-{[(carbamimidoylcarbamoyl)oxy]methyl}-2-fluorophenyl)pyrimidin-2-yl]piperidin-4-ylidene}amino)oxy]propanoate] |  | ≥ 50%
